Data from PubChem BioAssay (NCI).
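Five compound concentrations were applied to cells in 96-well plates for 48 hours; endpoints were derived by simple linear interpolation of the resulting dose-response curve. GI50 marks 50% less growth. TGI: total growth inhibition.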

tested on: NCI-H226 lung; assay: NCI anticancer screen, dose series, 48 h

Q: Which TGI does the source give for `N#CC(C#N)=c1[nH]c2cccc3c2-c2c(cccc2c3=C(C#N)C#N)[nH]1` here?
A: > 100 µM

Q: For `C#C[C@]1(O)CC[C@H]2[C@@H]3CC=C4c5sc(Nc6ccccc6)nc5CC[C@]4(C)[C@H]3CC[C@@]21C`, which GI50 is on record?
A: 2.55 µM

Q: What about the TGI of the same compound?
A: 7.59 µM

Q: `COc1cc(NC(C)CCCN)c2nccc(C)c2c1OC` (configuration not stated) was tested. Which GI50 did it give?
A: 18.8 µM

Q: What about the TGI of the same compound?
A: 43 µM

Q: How did the TGI turn out when `COC(=O)/C=C/C1C(C(=O)OC)C2(C(=O)OC)CCC1(C(=O)OC)N2` (configuration not stated) was run?
A: > 100 µM

Q: For `CSC1(CC(=O)N(C)C)C(=O)Nc2ccccc21` (configuration not stated), which TGI is on record?
A: > 100 µM

Q: Which TGI does the source give for `N#CC(C(=O)/C(=N/Nc1nc(=S)[nH]n1N)C(C#N)c1ccccc1)c1ccccc1` (configuration not stated) here?
A: > 100 µM

Q: How did the TGI turn out when `N#CC(/C(=N/NC(=O)C(=O)NN)C(=O)NC12CC3CC(CC(C3)C1)C2)c1ccccc1` (configuration not stated) was run?
A: > 100 µM

Q: Which results are given for `CC(=O)OCC1OC([S-])C(OC(C)=O)C(OC(C)=O)C1OC(C)=O.CC[PH+](CC)CC.CC[PH+](CC)CC.[Au].[Au]` (configuration not stated)?
A: GI50: 0.244 µM; TGI: 1.7 µM

Q: For `COc1cc2c(cc1OCc1ccccc1)CNCC2`, which TGI is on record?
A: > 100 µM

Q: For `O/N=C\c1c(O)ccc2ccccc12`, which TGI is on record?
A: > 100 µM

Q: For `CCCCCCCCCc1cc(=O)c2c(O)cccc2o1`, which TGI is on record?
A: > 100 µM

Q: How did the TGI turn out when `O=C(C[n+]1ccccc1)NNC(=O)/C(=C/c1ccc2c(c1)OCO2)NC(=O)c1ccccc1` was run?
A: > 92.4 µM

Q: With `Cc1c(C2Nc3ccccc3C2C)[nH]c2ccccc12` (configuration not stated) as the compound, how does the GI50 read?
A: 10.9 µM

Q: What about the TGI of the same compound?
A: 31.3 µM

Q: With `Clc1ccc(-c2c(C3=NCCN3)nnn2-c2ccc(Cl)cc2)cc1` as the compound, how does the TGI read?
A: > 100 µM

Q: How did the TGI turn out when `CC(C)(C)N1CC2(CCCCC2)C1=O` was run?
A: > 100 µM

Q: Which TGI does the source give for `O=C(CCC(=O)Nc1cccc(Cl)c1)CC(=O)c1ccc(Cl)cc1` here?
A: > 100 µM

Q: `O=C(CCCN1CC=C(n2c(=O)[nH]c3ccccc32)CC1)c1ccc(F)cc1` was tested. Which GI50 did it give?
A: 25.5 µM

Q: What about the TGI of the same compound?
A: > 100 µM

Q: What does the source list for `CC(=O)Oc1ccccc1C(=O)N=C1[Se]CCCN1C(=O)c1ccccc1OC(C)=O`?
A: GI50: 2.01 µM; TGI: 4.74 µM

Q: With `CCN(CC)CC(C)(C)C(=O)/C=C/c1ccc(Cl)c(Cl)c1` as the compound, how does the GI50 read?
A: 1.71 µM

Q: What about the TGI of the same compound?
A: 3.35 µM

Q: For `NC1CCCC[C@H]1N.N[C@@H]1CCCC[C@@H]1N.O=C(P(=O)([O-])[O-])P(=O)([O-])[O-].[Pt+4].[Pt+4]`, which GI50 is on record?
A: > 100 µM

Q: What about the TGI of the same compound?
A: > 100 µM

Q: `O=C(O)Cc1c(O)ccc2ccccc12` was tested. Which TGI did it give?
A: > 100 µM

Q: For `CN1CCc2c(Sc3ccc(C(=O)NO)cc3)c3ccccc3n2C1`, which GI50 is on record?
A: 2.75 µM

Q: What about the TGI of the same compound?
A: 14.9 µM

Q: Which TGI does the source give for `O=C(CSc1nnc(-c2ccccc2NC(=O)C(F)(F)F)c(=O)[nH]1)NC(=O)Nc1ccccc1` here?
A: > 100 µM

Q: Which TGI does the source give for `CCOC(=O)c1[nH]c(COC(C)=O)c(CCCOC(C)=O)c1CCCOC(C)=O` here?
A: > 100 µM

tested on: NCI/ADR-RES ovarian; assay: NCI anticancer screen, dose series, 48 h

Q: With `COc1ccccc1/C=C/c1cnccn1` as the compound, how does the TGI read?
A: > 10 µM

Q: `CC(C)c1ccccc1S(=O)c1ccccc1C(C)(C)O` (configuration not stated) was tested. Which TGI did it give?
A: > 100 µM

Q: With `C#C[C@]1(O)CC[C@H]2[C@@H]3CC=C4c5sc(Nc6ccccc6)nc5CC[C@]4(C)[C@H]3CC[C@@]21C` as the compound, how does the GI50 read?
A: 2.15 µM

Q: And the TGI?
A: > 100 µM

Q: `COc1cc(NC(C)CCCN)c2nccc(C)c2c1OC` (configuration not stated) was tested. Which GI50 did it give?
A: 20.5 µM

Q: And the TGI?
A: 74.6 µM

Q: Which TGI does the source give for `CSC1(CC(=O)N(C)C)C(=O)Nc2ccccc21` (configuration not stated) here?
A: > 100 µM

Q: How did the TGI turn out when `N#CC(C(=O)/C(=N/Nc1nc(=S)[nH]n1N)C(C#N)c1ccccc1)c1ccccc1` (configuration not stated) was run?
A: > 100 µM

Q: With `O/N=C\c1c(O)ccc2ccccc12` as the compound, how does the TGI read?
A: > 100 µM

Q: Which results are given for `Cc1c(C2Nc3ccccc3C2C)[nH]c2ccccc12` (configuration not stated)?
A: GI50: 10.4 µM; TGI: 30.7 µM

Q: For `O=C(CCCN1CC=C(n2c(=O)[nH]c3ccccc32)CC1)c1ccc(F)cc1`, which GI50 is on record?
A: 22.9 µM

Q: And the TGI?
A: > 100 µM

Q: For `CC(=O)Oc1ccccc1C(=O)N=C1[Se]CCCN1C(=O)c1ccccc1OC(C)=O`, which GI50 is on record?
A: 2.92 µM

Q: And the TGI?
A: 8.09 µM

Q: Which TGI does the source give for `O=C(O)Cc1c(O)ccc2ccccc12` here?
A: > 100 µM

Q: Which GI50 does the source give for `CN1CCc2c(Sc3ccc(C(=O)NO)cc3)c3ccccc3n2C1` here?
A: 6.81 µM

Q: And the TGI?
A: 51.7 µM

Q: With `N#CC1Nc2ccccc2[C@@H](O)C1O` (some centres not stated) as the compound, how does the TGI read?
A: > 100 µM
